In patent publication US10945983B2, “Oleocanthal isolation and cancer treatment” (Board of Supervisors for the University of Louisiana System, priority 2016, dated 2021):
Read-outs that look alike come from different tables or passages of the source.

Legend:
mTOR = mTOR (Homo sapiens, UniProt P42345); details: read-out: IC50 mTOR enzymatic activity; cited from earlier work
BT-474 human BC cells = details: for BT-474 tumor weight inhibition vs vehicle: 3×/week, intraperitoneal, 60 days; for BT-474 tumor growth inhibition: 5×/week
Experimental: 5×10^6 cells/20 μL BT-474 human BC cells were sc inoculated into second mammary gland fat pad of athymic nude (Foxn1^nu/Foxn^1). […] Top panels show photographs of representative intact animal for each group. Bottom panels show photographs of excised primary tumor at experiment end.
Turning to FIGS. 28A-32, the HER2+ BC represents >15% of total BC cases with aggressive metastatic and highly resistant profile.

[1] = system: MDA-MB-231/GFP human breast cancer cells; test: Orthotopic TNBC xenograft model in athymic mice; format: in vivo, athymic nude mice; details: intraperitoneal 5 mg/kg, 3× per week; previous experiments of the inventors
Experimental: MDA-MB-231/GFP human breast cancer cells were cultured and resuspended in serum-free DMEM medium (20 μl). After anesthesia, cell suspensions (1×10^6 cells/20 μl) were inoculated subcutaneously into the second mammary gland fat pad just beneath the nipple of each athymic nude mouse to generate orthotopic breast tumors. […] FIG. 20 is a line chart showing tumor size was evaluated periodically during treatment at indicated days postinoculation. Tumor volume (V) was calculated by V=L/2×W^2, where L was the length and W was the width of tumors. […]
Turning to FIGS. 20-23, in the current disclosure, as a future dietary candidate OC nano-emulsion oral in vivo antitumor efficacy was assessed using the same mouse model using MDA-MB-231/GFP human BC cells. […] The mice were monitored by measuring body weight, and observation of their physical behavior throughout the study. […]
MDA-MB-231/GFP human breast cancer cells were harvested, pelleted by centrifugation at 850×g for 5 minutes, and re-suspended in sterile serum-free DMEM medium (20 μL). […] The mice were monitored by measuring tumor volume, body weight, and clinical observation. Tumor volume (V) was calculated by V=L/2×W^2, where L was the length and W was the width of tumors. […]

HER2+-ER+BT-474 BC cells = test: BT-474 recurrence after neoadjuvant lapatinib regimen; format: in vivo, athymic nude mice; details: OC 10 mg/kg, ip, 3×/week, additional 54 days after lapatinib 50 mg/kg for 60 days
Experimental: FIG. 36A is a photograph of representative animals of vehicle control group and two photographs showing circled tumor developed over the additional 54 days period. FIG. 36B is two photographs of representative animals that completed 60 days oral lapatinib 50 mg/kg group and two photographs of developed circled tumors after additional 54 days. FIG. 36C is two photographs of representative animals of 10 mg OC 1p, 3×/week group, and two photographs showing no tumor developed over the additional 54 days regimen.
(§1) The correlation between c-Met/HGF pathway and tumor resistance is documented. […] This was consistent with the OC c-Met inhibitory activity and previously shown growth and recurrence effects.

TNBC MDA-MB-231 BC cells = test: TNBC recurrence after neoadjuvant paclitaxel; format: in vivo; details: 10 mg/kg oral daily
Source text: as §1

BT-474 tumor recurrence = test: HER2+/ER+ BT-474 recurrence after primary tumor surgical excision; details: for recurrence tumor weight inhibition: additional 54 days after excision
Experimental: Female athymic nude mice used in previous experiment were anesthetized prior to the surgical excision procedure with ip ketamine/xylazine combination (100 mg/kg/15 mg/kg). 15-20 min after administering the anesthetic animal reflexes tested by gently tapping the hind legs with sterile syringe needle and finally their tumors were surgically excised and each wound was closed by one or two stitches. Ketoprofen, 1 mg/kg was used 12 hours before and 12 h after surgery for effective analgesia. Ophthalmic lubricant was used during the surgery to prevent corneal drying. Bupivicaine (0.25%, 1-2 drops), twice daily, was used topically at the excision wound site, local infiltration along surgery site during closure with a maximum dose of 2 mg/kg.

C/C=C(/C=O)[C@@H](CC=O)CC(=O)OCCc1ccc(O)cc1 [OC, (-)-Oleocanthal]
IC50 (mTOR): 708 nM | BT-474 tumor weight inhibition vs vehicle (BT-474 human BC cells; 5 mg/kg): 88.2% | BT-474 tumor weight inhibition vs vehicle (BT-474 human BC cells; 10 mg/kg): 93.2% | tumor growth inhibition [1]: 65% | tumor recurrence after lapatinib regimen (HER2+-ER+BT-474 BC cells): inhibited the HER2+-ER+BT-474 BC cells recurrence | recurrence and chemoresistance after neoadjuvant paclitaxel (TNBC MDA-MB-231 BC cells): effectively inhibited in vivo recurrence and reversed chemoresistance | recurrence tumor weight inhibition (BT-474 tumor recurrence; 10 mg/kg, ip, 3×/week): 86.2%

CS(=O)(=O)CCNCc1ccc(-c2ccc3ncnc(Nc4ccc(OCc5cccc(F)c5)c(Cl)c4)c3c2)o1 [lapatinib, reference compound]
BT-474 tumor growth inhibition (BT-474 human BC cells; 12.5 mg oral dose): 85.9% | BT-474 tumor growth inhibition (BT-474 human BC cells; 50 mg oral dose): 89.9% | recurrence tumor weight inhibition (BT-474 tumor recurrence; 50 mg/kg, 5×/week oral): 81.4% | body weight (BT-474 tumor recurrence; lapatinib 50 mg/kg, additional 54 days): significant weight decrease
